What was measured:
[1] = test system: SNL-induced motor phenotype; experiment: Fine motor kinematic gait analysis (MotoRater) in SNL model; type: in vivo, Sprague-Dawley rats; conditions: for overall gait score, CBC compared to pregabalin: p: CBC 10 mg/kg vs. pregabalin 50 mg/kg; for Knee ROM Deviation [degree]: Stats: vehicle vs. treatment group; for Overall kinematic gait score, Vehicle vs. treatment: Summary / Overall kinematic gait score, Vehicle vs. treatment: Predicted (LS) mean diff.: between groups; for Overall kinematic gait score, Vehicle vs. treatment: Predicted (LS) mean diff. / Overall kinematic gait score, D7 vs. D8 5 h: Predicted (LS) mean diff. / Overall kinematic gait score, D7 vs. D8 9 h: Predicted (LS) mean diff. / Overall kinematic gait score, D7 vs. D9: Predicted (LS) mean diff. / Overall kinematic gait score, D7 vs. Baseline: Predicted (LS) mean diff.: z-score; for Ankle Angle, Max [degree]: Stats: vehicle vs. treatment, pregabalin 50 mg/kg; for Overall kinematic gait score, D7 vs. D8 5 h: Summary / Overall kinematic gait score, D7 vs. D8 9 h: Summary / Overall kinematic gait score, D7 vs. D9: Summary / Overall kinematic gait score, D7 vs. Baseline: Summary / Overall kinematic gait score, D7 vs. D8 5 h: Predicted (LS) mean diff. / Overall kinematic gait score, D7 vs. D8 9 h: Predicted (LS) mean diff. / Overall kinematic gait score, D7 vs. D9: Predicted (LS) mean diff. / Overall kinematic gait score, D7 vs. Baseline: Predicted (LS) mean diff.: within group; for Overall kinematic gait score, D7 vs. Baseline: Summary / Overall kinematic gait score, D7 vs. Baseline: Predicted (LS) mean diff.: before dosing
Method: The treatment groups received the following test article mixtures: • Group 1: treated with vehicle (0.9% saline) • Group 2: treated with Pregabalin (50 mg/kg) • Group 3: treated with CBC (10 mg/kg)
Administration of Treatments. CBC (cannabichromene) formulation, the vehicle, or pregabalin treatment was administered according to Table 1 on study day 8 to all study animals, and on study day 10 to 6 animals per group. The dousing route of CBC or the vehicle were intragastric (p.o.), while pregabalin was administered intraperitoneally (i.p.). In addition to D8, pregabalin was administered on D9, at 2 h prior to the evf test. All animals of the pregabalin group were euthanized on D9, following the last test trial. The CBC was dissolved and diluted to one of the following vehicles:
Fine Motor Kinematic Gait Analysis. The subjected to gait analysis at the baseline and on study days 8, 9, 11, 14 and 17, at a minimum of 30 min after the evF test. The assay was carried out by MotoRater (TSE Systems, Homburg, Germany), with the walking mode. Prior to commencing the test, the essential body points (e.g. joints, limbs, nose, tail) were marked for tracking. The information of the gait performance was captured using a high speed camera (300 frames/second) from below and both sides. Next, the captured videos are converted to custom software. The raw data was obtained by tracking the marked points of the body from the videos recorded from all 3 dimensions. The raw data thus comprise correlation of the movements of different body points in coordinates related to the ground and each three dimensions.
Different gait patterns and movements were analyzed using a custom made automated analysis system. Information about altogether over a hundred kinematic parameters were attained. These comprised e.g:
All MotoRater data were analyzed for the distinct parameters, as well as for all combined parameters, using principal component analysis (PCA). The obtained results produce the model phenotype in gait analysis i.e. the difference between vehicle and cannabinoid treated animals regarding both individual parameters and PCA.
In addition to the baseline test, the motorater test was performed altogether four times over the course of behavioral study phase: • on D7, to assess the model-specific motor defects prior to dosing, • on D8, after finishing the 4-h evF, • on D8, after finishing the 8-h evF, and • on D9, after finishing the 24-h evF.
The kinematic assay was not performed to the animals before a minimum of 30 min after evF test.

[2] = Body weight monitoring in SNL study; type: in vivo, Sprague-Dawley rats; conditions: SNL rats; CBC 10 mg/kg, pregabalin 50 mg/kg; two-way ANOVA, Tukey's
Method: Body Weight Monitoring. The body weight of the animals was recorded at baseline evF testing, on the day of surgery (DO), and daily thereafter.

[3] = test system: SNL model effect; experiment: Data mining (cPCA) of kinematic gait data: SNL model (analgesic) and sedation effect scores; type: in vivo, rats
Method: Data mining was successfully performed to extend the multivariate kinematic data analysis and capture the analgesic effect of cannabichromene (CBC) on quantitative measurement of parameters attributed to the temporal aspects of motion to evaluate temporal aspects of motion, such as positions, angles, velocities, and accelerations of body segments and joints during motion.
Overall, 97 gait parameters were analyzed, and each parameter was averaged within each treatment group. A statistical method using Contrastive Principal Component Analysis (cPCA) was employed (Abid et al., 2018). The method of cPCA was designed to identify different combinations of original variables linked to the Spinal Nerve Ligation (SNL) model effect (pain) and learning effect. An orthogonalization procedure was then performed to create the obtained effects independent of learning and possible sedation. After the contrastive principal components (cPCs) (Model, Sedative) were established, the corresponding cPC scores were computed for each observation. The obtained cPC scores were further analyzed by using mixed two-way ANOVA followed by Dunnett's test of the estimated marginal means. The cPCA based analysis framework was implemented using R environment (R version 3.6.3). Statistical analysis was performed using Ime4 (Bates et al., 2015) and emmeans (R package version 1.4.5.) packages. The results of these comparisons were obtained by using all the previously identified components: model effect, learning effect and model orthogonal to learning.

[4] = BL (before dosing), vehicle vs. CBC 10 mg/kg group
[5] = Baseline (before SNL and dosing)
[6] = D8 5 h, CBC 10 mg/kg p.o., pregabalin 50 mg/kg i.p.
[7] = D 8 5 h, vehicle vs. CBC 10 mg/kg
[8] = D8 9 h, CBC 10 mg/kg p.o., pregabalin 50 mg/kg i.p.
[9] = D9, CBC 10 mg/kg p.o., pregabalin 50 mg/kg i.p.
[10] = Table 8, BL (before dosing), vehicle vs. CBC 10 mg/kg group
[11] = Table 8, D 8 5 h, vehicle vs. CBC 10 mg/kg
[12] = CBC 10 mg/kg p.o., pregabalin 50 mg/kg i.p.
[13] = BL (before dosing), vehicle vs. pregabalin group
[14] = D 7 (pre-dosing), vehicle vs. pregabalin group

## CCCCCc1cc(O)c2c(c1)OC(C)(CCC=C(C)C)C=C2 (stereo not shown) [CBC, cannabichromene]
[1]; 5 h PD
  overall gait score, CBC compared to pregabalin: p: 0.07693
[1]; 9 h PD
  overall gait score, CBC compared to pregabalin: p: 0.04717
[1]; [4]
  Ankle ROM Deviation [degree]: Stats: 2.98
  Homolateral Interlimb coordination: Stats: 2.84
  Swing Speed Metric, Hind: Stats: −3.67
[1]; BL (before dosing)
  Knee ROM Deviation [degree]: Stats: 2.88
[1]; [5]
  Overall kinematic gait score, Vehicle vs. treatment: Summary: ns
  Overall kinematic gait score, Vehicle vs. treatment: Predicted (LS) mean diff.: −1
[1]; CBC 10 mg/kg
  overall Gait score compared to Vehicle: did not show a significant reduction in overall Gait score compared to Vehicle
  overall gait score, within group comparisons over time: did not identify a significant time-bound overall gait score difference
[1]; D7 (pre-dosing)
  Overall kinematic gait score, Vehicle vs. treatment: Summary: ns
  Overall kinematic gait score, Vehicle vs. treatment: Predicted (LS) mean diff.: 0.1511
[1]; [6]
  Overall kinematic gait score, Vehicle vs. treatment: Summary: ns
  Overall kinematic gait score, Vehicle vs. treatment: Predicted (LS) mean diff.: 1.116
[1]; [7]
  Hip Angle, Max [degree]: Stats: 4.29
  Knee Angle, Min [degree]: Stats: 3.78
  Mean Hip Jerk [m/s3]: Adjusted p-value: 0.01
  Mean Hip Jerk [m/s3]: Adjusted p-value Sig?: ** (** p≤0.01)
  Mean Hip Jerk [m/s3]: Stats: −3.04
  Mean Hip Jerk [m/s3]: p-value: 0.01
  Protraction, Hind [m]: Stats: −4.42
  Retraction, Hind [m]: Stats: 4.26
  Step Width, Fore [mm]: Stats: −2.86
[1]; D 8 5 h, CBC 10 mg/kg
  Ankle Angle, Max [degree]: Stats: −2.85
[1]; [8]
  Overall kinematic gait score, Vehicle vs. treatment: Summary: ns
  Overall kinematic gait score, Vehicle vs. treatment: Predicted (LS) mean diff.: 0.654
[1]; [9]
  Overall kinematic gait score, Vehicle vs. treatment: Summary: ns
  Overall kinematic gait score, Vehicle vs. treatment: Predicted (LS) mean diff.: −0.4602
[1]; D9 post-dosing, CBC 10 mg/kg
  Homolateral Interlimb coordination, CBC vs. Vehicle: p: 0.03
[1]; [10]
  Ankle ROM: Significance: * (p<0.05, significant)
  Ankle ROM: Statistic: 2.98
  Homolateral: Significance: * (p<0.05, significant)
  Homolateral: Statistic: 2.84
  Knee ROM: Significance: * (p<0.05, significant)
  Knee ROM: Statistic: 2.88
  Swing Speed: Significance: ** (p<0.01, very significant)
  Swing Speed: Statistic: −3.67
[1]; [11]
  Ankle Angle. Max: Significance: * (p<0.05, significant)
  Ankle Angle. Max: Statistic: −2.85
  Hip Angle. Max: Significance: *** (p<0.001, extremely/highly significant)
  Hip Angle. Max: Statistic: 4.29
  Knee Angle. Min: Significance: ** (p<0.01, very significant)
  Knee Angle. Min: Statistic: 3.78
  Mean Hip Jerk: Significance: * (p<0.05, significant)
  Mean Hip Jerk: Statistic: −3.04
  Mean Hip Jerk: p-value: 0.00953
  Protraction. Hind: Significance: *** (p<0.001, extremely/highly significant)
  Protraction. Hind: Statistic: −4.42
  Retraction. Hind: Significance: *** (p<0.001, extremely/highly significant)
  Retraction. Hind: Statistic: 4.26
  Step Width. Fore: Significance: * (p<0.05, significant)
  Step Width. Fore: Statistic: −2.86
[1]; baseline to D9, CBC 10 mg/kg
  Support Metric gait variables compared to Vehicle: No statistical significance was observed
[1]; [12]
  Overall kinematic gait score, D7 vs. D8 5 h: Summary: ns
  Overall kinematic gait score, D7 vs. D8 9 h: Summary: ns
  Overall kinematic gait score, D7 vs. D9: Summary: ns
  Overall kinematic gait score, D7 vs. D8 5 h: Predicted (LS) mean diff.: −0.5337
  Overall kinematic gait score, D7 vs. D8 9 h: Predicted (LS) mean diff.: −1.516
  Overall kinematic gait score, D7 vs. D9: Predicted (LS) mean diff.: −1.619
[1]
  Overall kinematic gait score, D7 vs. Baseline: Summary: ** (p<0.01, very significant)
  Overall kinematic gait score, D7 vs. Baseline: Predicted (LS) mean diff.: 2.236
[2]
  body weight vs. vehicle over the course of the study: not significantly different
[3]; 9 hours post-dosing, single dose CBC 10 mg/kg p.o.
  SNL model effect score (analgesic effect): No significant analgesic effect
[3]; D8 5 h post-dosing, single dose CBC 10 mg/kg p.o.
  SNL model score (analgesic effect) compared to vehicle group: p: < 0.05
[3]; D8, 5 h and D8, 9 h post-dosing, CBC 10 mg/kg, CBD:THC 10:10 mg/kg
  independent sedation effect score: did not exert any sedative effect

## CC(C)C[C@H](CN)CC(=O)O [Pregabalin, pregabalin, reference compound]
[1]; [13]
  Duty Cycle [%]: Stats: 2.77
  Duty Cycle, Fore [%]: Stats: 3.26
  Mean Hip Jerk [m/s3]: Adjusted p-value: 0.001
  Mean Hip Jerk [m/s3]: Adjusted p-value Sig?: *** (*** p≤0.001)
  Mean Hip Jerk [m/s3]: Stats: −3.75
  Mean Hip Jerk [m/s3]: p-value: 0.001
[1]; BL (before dosing)
  Knee ROM Deviation [degree]: Stats: 3.23
[1]; [5]
  Overall kinematic gait score, Vehicle vs. treatment: Summary: * (p<0.05, significant)
  Overall kinematic gait score, Vehicle vs. treatment: Predicted (LS) mean diff.: −2.013
[1]; D7 (pre-dosing)
  Overall kinematic gait score, Vehicle vs. treatment: Summary: ns
  Overall kinematic gait score, Vehicle vs. treatment: Predicted (LS) mean diff.: −0.5896
[1]; [14]
  Paw Trajectory Shape 25%, Hind [%]: Stats: −3.01
  Relative Trajectory Length, Fore: Stats: −3.26
[1]; [6]
  Overall kinematic gait score, Vehicle vs. treatment: Summary: ns
  Overall kinematic gait score, Vehicle vs. treatment: Predicted (LS) mean diff.: −0.2262
[1]; D 8 5 h, vehicle vs. pregabalin 50 mg/kg
  Ankle Angle, Min [degree]: Stats: −2.99
[1]; D 8 5 h, CBC 10 mg/kg
  Ankle Angle, Max [degree]: Stats: −3.74
[1]; [8]
  Overall kinematic gait score, Vehicle vs. treatment: Summary: ns
  Overall kinematic gait score, Vehicle vs. treatment: Predicted (LS) mean diff.: −0.8408
[1]; D 8 9 h, vehicle vs. pregabalin 50 mg/kg
  Hip ROM [degree]: Stats: 2.85
[1]; [9]
  Overall kinematic gait score, Vehicle vs. treatment: Summary: ns
  Overall kinematic gait score, Vehicle vs. treatment: Predicted (LS) mean diff.: −0.8531
[1]; [12]
  Overall kinematic gait score, D7 vs. D8 5 h: Summary: ns
  Overall kinematic gait score, D7 vs. D8 9 h: Summary: ** (p<0.01, very significant)
  Overall kinematic gait score, D7 vs. D9: Summary: ns
  Overall kinematic gait score, D7 vs. D8 5 h: Predicted (LS) mean diff.: −1.135
  Overall kinematic gait score, D7 vs. D8 9 h: Predicted (LS) mean diff.: −2.27
  Overall kinematic gait score, D7 vs. D9: Predicted (LS) mean diff.: −1.271
[1]
  Overall kinematic gait score, D7 vs. Baseline: Summary: ** (p<0.01, very significant)
  Overall kinematic gait score, D7 vs. Baseline: Predicted (LS) mean diff.: 1.964
[2]
  body weight vs. vehicle over the course of the study: not significantly different
[3]; pregabalin 50 mg/kg
  analgesic or sedative effect in fine motor kinematic performance: no analgesic or sedative effect
